Measured values from ChEMBL document CHEMBL1142644, “Antineoplastic agents 440. Asymmetric synthesis and evaluation of the combretastatin A-1 SAR probes (1S,2S)- and (1R,2R)-1, 2-dihydroxy- 1-(2',3'-dihydroxy-4'-methoxyphenyl)-2-(3' ',4' ',5' '-trimethoxyphenyl)-ethane” (J Nat Prod, 2000).
Converted amounts (≈) assume the structure as drawn. The source made the active and inactive calls. The calls are words filed in the database; no cut-off is given here.

Tests used:
[1] = tested on: L1210; assay: Cytotoxicity against mouse L1210 cells; type: functional; conditions: read-out: ED50 (the source's name)
[2] = tested on: Neisseria gonorrhoeae; assay: Antibacterial activity against Neisseria gonorrhoeae by disk susceptibility test; type: functional
[3] = tested on: P388; assay: Cytotoxicity against mouse P388 cells; type: functional; conditions: read-out: ED50 (the source's name)
[4] = tested on: FaDu; assay: Cytotoxicity against human FaDu cells; type: functional
[5] = tested on: Streptococcus pneumoniae; assay: Antibacterial activity against Streptococcus pneumoniae by disk susceptibility test; type: functional
[6] = Inhibition of bovine tubulin polymerization; parameters: species or system Bos taurus
[7] = tested on: Staphylococcus aureus; assay: Antibacterial activity against Staphylococcus aureus by disk susceptibility test; type: functional
[8] = tested on: Cryptococcus neoformans; assay: Antifungal activity against Cryptococcus neoformans by disk susceptibility test; type: functional
[9] = tested on: Stenotrophomonas maltophilia; assay: Antibacterial activity against Stenotrophomonas maltophilia by disk susceptibility test; type: functional
[10] = tested on: Candida albicans; assay: Antifungal activity against Candida albicans by disk susceptibility test; type: functional
[11] = tested on: Enterococcus faecalis; assay: Antibacterial activity against Enterococcus faecalis at 100 ug/disk by disk susceptibility test
[12] = tested on: Micrococcus luteus; assay: Antibacterial activity against Micrococcus luteus at 100 ug/disk by disk susceptibility test
[13] = tested on: Enterobacter cloacae; assay: Antibacterial activity against Enterobacter cloacae at 100 ug/disk by disk susceptibility test
[14] = tested on: Stenotrophomonas maltophilia; assay: Antibacterial activity against Stenotrophomonas maltophilia at 100 ug/disk by disk susceptibility test
[15] = tested on: Candida albicans; assay: Antifungal activity against Candida albicans at 100 ug/disk by disk susceptibility test
[16] = tested on: Streptococcus pneumoniae; assay: Antibacterial activity against Streptococcus pneumoniae at 100 ug/disk by disk susceptibility test
[17] = tested on: Neisseria gonorrhoeae; assay: Antibacterial activity against Neisseria gonorrhoeae at 100 ug/disk by disk susceptibility test
[18] = tested on: Staphylococcus aureus; assay: Antibacterial activity against Staphylococcus aureus at 100 ug/disk by disk susceptibility test
[19] = tested on: Cryptococcus neoformans; assay: Antifungal activity against Cryptococcus neoformans at 100 ug/disk by disk susceptibility test
[20] = tested on: Escherichia coli; assay: Antibacterial activity against Escherichia coli at 100 ug/disk by disk susceptibility test
[21] = species on record: Bos taurus; assay: Displacement of [3H]colchicine from bovine tubulin at inhibitor to colchicine ratio of 1:1; parameters: scale not given: the % may be the effect or the level left
[22] = species on record: Bos taurus; assay: Displacement of [3H]colchicine from bovine tubulin at inhibitor to colchicine ratio of 0.2:1; parameters: scale not given: the % may be the effect or the level left

**Q.** Which results are given for `COc1ccc(/C=C\c2cc(OC)c(OC)c(OC)c2)cc1O` [COMBRETASTATIN A4]?
**A.** EC50 [1]: 0.007 µM; MIC [2]: 25 µg; EC50 [3]: 0.0003 µg/mL (≈ 0.000948 µM); GI50 [4]: 0.0007 µg/mL (≈ 0.00221 µM)

**Q.** What does the source list for `COc1ccc([C@@H](O)[C@H](O)c2cc(OC)c(OC)c(OC)c2)cc1O`?
**A.** EC50 [3]: 19 µg/mL (≈ 54.2 µM); GI50 [4]: 2.1 µg/mL (≈ 5.99 µM); MIC [5]: 50 µg; IC50 [6]: > 40 µM

**Q.** Which results are given for `COc1ccc([C@H](O)[C@@H](O)c2cc(OC)c(OC)c(OC)c2)c(O)c1O`?
**A.** MIC [2]: 25 µg; EC50 [3]: 2.9 µg/mL (≈ 7.92 µM); GI50 [4]: > 10 µg/mL; IC50 [6]: 10 µM

**Q.** For `COc1ccc(/C=C\c2cc(OC)c(OC)c(OC)c2)cc1OP(=O)([O-])[O-].[Na+].[Na+]` [FOSBRETABULIN DISODIUM], which MIC [2] is on record?
**A.** 50 µg

**Q.** What about the EC50 [3] of the same molecule?
**A.** 0.0004 µg/mL

**Q.** For `COc1ccc(CCc2cc(OC)c(OC)c(OC)c2)c(O)c1O`, which MIC [2] is on record?
**A.** 12.5 µg

**Q.** What about the EC50 [3] of the same molecule?
**A.** 1.7 µg/mL (≈ 5.08 µM)

**Q.** Which MIC [2] does the source give for `COc1ccc(/C=C/c2cc(OC)c(OC)c(OC)c2)c(O)c1O` here?
**A.** 6.25 µg

**Q.** What about the MIC [7] of the same molecule?
**A.** 50 µg

**Q.** What about the MIC [5] of the same molecule?
**A.** 50 µg

**Q.** And the MIC [8]?
**A.** 50 µg

**Q.** And the MIC [9]?
**A.** 50 µg

**Q.** What about the MIC [10] of the same molecule?
**A.** 50 µg

**Q.** Which Activity [11] does the source give for `COc1ccc(/C=C/c2cc(OC)c(OC)c(OC)c2)cc1O` here?
**A.** inactive

**Q.** And the Activity [12]?
**A.** inactive

**Q.** What about the Activity [13] of the same molecule?
**A.** inactive

**Q.** And the Activity [14]?
**A.** inactive

**Q.** And the Activity [15]?
**A.** inactive

**Q.** And the Activity [16]?
**A.** inactive

**Q.** What about the Activity [17] of the same molecule?
**A.** inactive

**Q.** What about the Activity [18] of the same molecule?
**A.** inactive

**Q.** What about the Activity [19] of the same molecule?
**A.** inactive

**Q.** And the Activity [20]?
**A.** inactive

**Q.** Which EC50 [3] does the source give for `COc1ccc([C@H](O)[C@@H](O)c2cc(OC)c(OC)c(OC)c2)cc1O` here?
**A.** 2 µg/mL (≈ 5.71 µM)

**Q.** What about the GI50 [4] of the same molecule?
**A.** 0.6 µg/mL (≈ 1.71 µM)

**Q.** What about the MIC [5] of the same molecule?
**A.** 25 µg

**Q.** What about the IC50 [6] of the same molecule?
**A.** 14 µM

**Q.** For `COc1cc(CCc2ccc(OC)c(OP(=O)([O-])[O-])c2OP(=O)([O-])[O-])cc(OC)c1OC.[Na+].[Na+].[Na+].[Na+]`, which EC50 [3] is on record?
**A.** 0.3 µg/mL

**Q.** Which Activity [11] does the source give for `COc1ccc([C@@H](O)[C@H](O)c2cc(OC)c(OC)c(OC)c2)c(O)c1O` here?
**A.** inactive

**Q.** What about the Activity [12] of the same molecule?
**A.** inactive

**Q.** What about the Activity [13] of the same molecule?
**A.** inactive

**Q.** And the Activity [14]?
**A.** inactive

**Q.** What about the Activity [15] of the same molecule?
**A.** inactive

**Q.** What about the EC50 [3] of the same molecule?
**A.** 3.9 µg/mL (≈ 10.6 µM)

**Q.** What about the Activity [16] of the same molecule?
**A.** inactive

**Q.** What about the GI50 [4] of the same molecule?
**A.** 4.9 µg/mL (≈ 13.4 µM)

**Q.** And the IC50 [6]?
**A.** 20 µM

**Q.** And the Activity [17]?
**A.** inactive

**Q.** What about the Activity [18] of the same molecule?
**A.** inactive

**Q.** What about the Activity [19] of the same molecule?
**A.** inactive

**Q.** And the Activity [20]?
**A.** inactive

**Q.** For `COc1cc(/C=C\c2ccc(OC)c(OP(=O)([O-])[O-])c2OP(=O)([O-])[O-])cc(OC)c1OC.[Na+].[Na+].[Na+].[Na+]`, which EC50 [3] is on record?
**A.** < 0.01 µg/mL

**Q.** Which Activity [21] does the source give for `COc1ccc(/C=C\c2cc(OC)c(OC)c(OC)c2)c(O)c1O` [COMBRETASTATIN A-1] here?
**A.** 99.6%

**Q.** And the MIC [2]?
**A.** 25 µg

**Q.** And the MIC [7]?
**A.** 50 µg

**Q.** What about the EC50 [3] of the same molecule?
**A.** 0.2 µg/mL (≈ 0.602 µM)

**Q.** And the GI50 [4]?
**A.** 0.23 µg/mL (≈ 0.692 µM)

**Q.** And the IC50 [6]?
**A.** 1.1 µM

**Q.** What about the Activity [22] of the same molecule?
**A.** 89%
